# Biological target: T1, AR (Homo sapiens, UniProt P10275, T878A)
# T1 construct: into the androgen-dependent PCa cells (LNCaP); endogenous in cells; host or cells: LNCaP-ARR2PB-eGFP
# T1 sequence (P10275 1-920 T878A): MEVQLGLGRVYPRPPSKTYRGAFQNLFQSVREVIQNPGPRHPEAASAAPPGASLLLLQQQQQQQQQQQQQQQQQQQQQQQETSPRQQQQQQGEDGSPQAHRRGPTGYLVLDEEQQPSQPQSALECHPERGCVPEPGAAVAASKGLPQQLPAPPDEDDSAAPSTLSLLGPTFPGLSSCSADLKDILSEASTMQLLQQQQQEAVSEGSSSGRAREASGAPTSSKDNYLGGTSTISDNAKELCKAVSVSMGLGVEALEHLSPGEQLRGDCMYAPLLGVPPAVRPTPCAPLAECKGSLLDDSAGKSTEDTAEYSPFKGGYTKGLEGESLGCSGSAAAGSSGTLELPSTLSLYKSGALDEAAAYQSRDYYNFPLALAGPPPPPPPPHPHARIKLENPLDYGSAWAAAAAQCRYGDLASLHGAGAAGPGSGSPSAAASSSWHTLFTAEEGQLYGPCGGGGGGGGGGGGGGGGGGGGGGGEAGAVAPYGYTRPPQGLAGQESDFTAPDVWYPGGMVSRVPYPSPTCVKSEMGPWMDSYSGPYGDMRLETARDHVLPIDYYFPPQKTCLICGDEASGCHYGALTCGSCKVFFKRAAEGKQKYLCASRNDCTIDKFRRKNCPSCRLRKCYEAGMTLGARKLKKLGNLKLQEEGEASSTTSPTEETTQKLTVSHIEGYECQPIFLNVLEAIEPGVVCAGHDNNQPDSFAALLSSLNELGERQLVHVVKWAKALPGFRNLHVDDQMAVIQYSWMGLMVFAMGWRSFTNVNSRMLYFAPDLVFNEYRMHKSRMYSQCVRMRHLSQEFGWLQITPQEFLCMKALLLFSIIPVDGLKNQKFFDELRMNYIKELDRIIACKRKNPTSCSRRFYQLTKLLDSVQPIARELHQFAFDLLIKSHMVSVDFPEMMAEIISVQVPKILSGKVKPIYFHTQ
# Test: AR transcriptional activity, LNCaP-ARR2PB-eGFP reporter cells
# Assay type: cell-based
# Conditions: read-out: IC50 AR transcriptional activities
# Description: Detection principles: We conducted a stable transfection of promoter ARR2PB known for its strong AR responsiveness, into the androgen-dependent PCa cells (LNCaP). The expression of enhanced green fluorescent protein (eGFP) is depending on the degree of activation of AR. Therefore, LNCaP-ARR2PB-eGFP cell line could quantitatively determine the AR antagonistic activities of the compounds by evaluating the expression of eGFP.
row,SMILES,IC50 [µM]
1,"CN(C)Cc1nsc(NC(=O)c2coc(-c3cccc(C#N)c3)c2)n1 [Compound B-47, 5-(3-Cyanophenyl)-N-(3-((dimethylamino)methyl)-1,2,4-thiadiazol-5-yl)furan-3-carboxamide]",18.6
2,"Cc1sc(-c2cccc(OC(F)(F)F)c2)cc1C(=O)Nc1nc(CC(C)N2CCOCC2)ns1 (centres unmarked) [Compound C-17, 2-Methyl-N-(3-(2-morpholinopropyl)-1,2,4-thiadiazol-5-yl)-5-(3-(trifluoromethoxy)phenyl)thiophene-3-carboxamide]",6.17
3,"CC(Cc1nsc(NC(=O)c2coc(-c3cccc(C(F)(F)F)c3)c2)n1)N(C)C (centres unmarked) [Compound B-6, N-(3-(2-(dimethylamino)propyl)-1,2,4-thiadiazol-5-yl)-5-(3-(trifluoromethyl)phenyl) furan-3-carboxamide]",11.8
4,"CC(Cc1nsc(NC(=O)c2coc(-c3cccc(C(F)(F)F)c3)c2)n1)=C(F)F [Compound B-30, N-(3-(3,3-difluoro-2-methylallyl)-1,2,4-thiadiazol-5-yl)-5-(3-(trifluoromethyl)phenyl) furan-3-carboxamide]",4.93
5,"CCN(CC)C(C)Cc1nsc(NC(=O)c2csc(-c3cccc(C(F)(F)F)c3)c2)n1 [Compound D-7, N-(3-(2-(diethylamino)propyl)-1,2,4-thiadiazol-5-yl)-5-(3-(trifluoromethyl)phenyl)thiophene-3-carboxamide]",23.2
6,"COc1cccc(-c2cc(C(=O)Nc3nc(CC(C)=O)ns3)co2)c1 [Compound B-3, 5-(3-Methoxyphenyl)-N-(3-(2-oxopropyl)-1,2,4-thiadiazol-5-yl)furan-3-carboxamide]",12.6
7,"Cc1oc(-c2cccc(OC(F)F)c2)cc1C(=O)Nc1nc(CN2CCN(C)CC2)ns1 [Compound A-131, 5-(3-(Difluoromethoxy)phenyl)-2-methyl-N-(3-((4-methylpiperazin-1-yl)methyl)-1,2,4-thiadiazol-5-yl)furan-3-carboxamide]",1.42

# Next, values leading:
row,IC50 [µM],SMILES
1,1.48,"CC(=O)Cc1nsc(NC(=O)c2cc(-c3cccc(OC(F)F)c3)oc2C(F)(F)F)n1 [Compound E-5, 5-(3-(Difluoromethoxy)phenyl)-N-(3-(2-oxopropyl)-1,2,4-thiadiazol-5-yl)-2-(trifluoro-methyl)furan-3-carboxamide]"
2,0.89,"O=C(Nc1nc(CN2CCCCC2)ns1)c1cc(-c2cccc(OC(F)F)c2)oc1C(F)(F)F [Compound E-41, 5-(3-(Difluoromethoxy)phenyl)-N-(3-(piperidin-1-ylmethyl)-1,2,4-thiadiazol-5-yl)-2-(trifluoromethyl)furan-3-carboxamide]"
3,34.8,"CC(Cc1nsc(NC(=O)c2csc(-c3cccc(C(F)(F)F)c3)c2)n1)=C(F)F [Compound D-30, N-(3-(3,3-difluoro-2-methylallyl)-1,2,4-thiadiazol-5-yl)-5-(3-(trifluoromethyl)phenyl)thiophene-3-carboxamide]"
4,24.2,"O=C(Nc1nc(CN2CCCC2)ns1)c1cc(-c2cccc(C(F)(F)F)c2)co1 [Compound G-24, N-(3-(pyrrolidin-1-ylmethyl)-1,2,4-thiadiazol-5-yl)-4-(3-(trifluoromethyl)phenyl)furan-2-carboxamide]"
5,0.99,"CC(Cc1nsc(NC(=O)c2cc(-c3cccc(OC(F)(F)F)c3)oc2C(F)(F)F)n1)N1CCOCC1 (centres unmarked) [Compound E-10, N-(3-(2-morpholinopropyl)-1,2,4-thiadiazol-5-yl)-5-(3-(trifluoromethoxy)phenyl)-2-(trifluoromethyl)furan-3-carboxamide]"
6,1.06,"CC(=O)Cc1nsc(NC(=O)c2cc(-c3cccc(C(F)(F)F)c3)oc2C(F)(F)F)n1 [Compound E-1, N-(3-(2-oxopropyl)-1,2,4-thiadiazol-5-yl)-2-(trifluoromethyl)-5-(3-(trifluoro-methyl)phenyl)furan-3-carboxamide]"
7,5.29,"COc1cccc(-c2cc(C(=O)Nc3nc(CC(C)N4CCCCC4)ns3)c(C(F)(F)F)o2)c1 (centres unmarked) [Compound E-9, 5-(3-Methoxyphenyl)-N-(3-(2-(piperidin-1-yl)propyl)-1,2,4-thiadiazol-5-yl)-2-(trifluoro-methyl)furan-3-carboxamide]"

# Source: patent US20240376091A1, “THIADIAZOLEAMIDE DERIVATIVES AND THEIR APPLICATIONS” (ZHEJIANG UNIVERSITY, priority 2021, published 2024)
